Entries after “also recorded” stand apart in the source; their conditions may differ. Where a name gives a salt, the structure may show the parent alone.
Tests used:
[1] = Solid-state stress stability test (humidity 90 % RH)
Method: (§1) Operation and Calculation: The blank solution, standard solution, and test solution were sequentially tested under the instrument operating conditions according to the liquid chromatography method in the General Test Methods of the 12th Edition of the Korean Pharmacopoeia, and the amount of related substances was calculated using the following equation. Amount of each related; substance (%) = (AT)/(AS) × (CS)/(CT) × (Molecular weight; of the sample)/(Molecular weight; of the standard; product) × P × (1)/(RR; F) [formula] AT = Area of each related substance peak obtained from the test solution AS = Area of the tegoprazan peak obtained from the standard solution CS = Concentration of standard solution (mg/mL) CT = Concentration of test solution (mg/mL) P = Purity/Assay/Potency (%) of standard product RRF = Relative response factor (1.0)
(§2) A solid-state stability comparative test was conducted on each of the above-mentioned prepared tegoprazan acid addition salts. The stability comparative test was conducted for 1 month under the conditions shown in Table 6 below in accordance with The International Council for Harmonisation of Technical Requirements for Pharmaceuticals for Human Use (ICH) guideline, and the purity of the acid addition salt, total related substances, and the content of degradants were measured by HPLC at the initial time point and after 1 month. Total related substances and degradants were measured according to the related substance test method (HPLC).
3) Stress Stability (humidity 90 % RH)

[2] = Photostability test, ultraviolet light (200 W·hr/m2) exposure
[3] = Solid-state accelerated stability test (40 ± 2 °C/RH 75 ± 5 %)
Method: as §1, §2

[4] = Solid-state stress stability test (temperature 60 °C)
Method: as §1, §2
2) Stress Stability Test (temperature 60 °C)

[5] = Liquid stability comparative test (20 mg/mL in purified water, 40 °C, 24 hours, HPLC); type: physicochemical; conditions: for solid precipitation / solution state: stored at 40 °C for 24 hours
Method: The analysis conditions are as follows.
Each sample was dissolved in purified water to prepare a solution with a concentration of 20 mg/mL, stored at an external temperature of 40 °C, and analyzed by HPLC at the initial time point and after 24 hours to measure purity, and the change in the generated degradant (Formula 4) was measured. The analysis of total related substances and degradants was performed by taking a liquid from a solution prepared at a concentration of 20 mg/mL, diluting it to a concentration of 4 mg/mL with the diluent of the related substance test method (HPLC), and measuring it as a test solution, and analyzing it according to the related substance test method (HPLC).

[6] = Photostability test, visible light (1.2 Mlux·hr) exposure
[7] = Table 10, UV 200 W·hr/m2, PE bag
[8] = 40 ± 2 °C / RH 75 ± 5 %, 1 month
[9] = Table 11 under heading Visible Light (1.2 Mlux-hr) Exposure Test

Cc1nc2c(O[C@H]3CCOc4cc(F)cc(F)c43)cc(C(=O)N(C)C)cc2[nH]1 [Pidolate Salt]
Remarks ([1]; 90 % RH, 1 month, state of the solid): Melted | absorb moisture and deliquesce / melted ([1]; 90 % RH, listed as pidolate): deliquesced | absorb moisture and deliquesce / melted ([1]; 90 % RH, listed as pidolate salt): absorb moisture and deliquesce; also recorded: melted | Initial (%) Degradant ([1]; Table 9, initial): 0.001% | Initial (%) Total Related substances ([1]; Table 9, initial): 0.145% | Change in Quality (%) 90 % RH (4 weeks) Degradant ([1]; Table 12 summary): Melted | Change in Quality (%) 90 % RH (4 weeks) Purity ([1]; Table 12 summary): Melted | After Ultraviolet Light Exposure (200 W hr/m2)(%) Degradant [2, 7]: 0.020% | After Ultraviolet Light Exposure (200 W hr/m2)(%) Total Related substances [2, 7]: 0.266% | Change (%) Degradant ([2]; Table 10, after UV exposure vs initial): 0.019% | Initial (%) Degradant ([2]; Table 10, initial): 0.001% | Initial (%) Total Related substances ([2]; Table 10, initial): 0.145% | Change in Quality (%) Light (Ultraviolet) Degradant ([2]; Table 12 summary): 0.019% | Change in Quality (%) Light (Ultraviolet) Purity ([2]; Table 12 summary): 0.121% | After 1 Month (%) Degradant [3, 8]: 0.003% | After 1 Month (%) Total Related substances [3, 8]: 0.146% | Change (%) Degradant ([3]; 40 ± 2 °C / RH 75 ± 5 %, 1 month vs initial): 0.002% | Initial (%) Total Related substances ([3]; Table 7, initial): 0.145% | Initial (%) Degradant ([3]; Table 7, initial, degradant of Formula 4): 0.001% | Change in Quality (%) Accelerated (4 weeks) Degradant ([3]; Table 12 summary): 0.002% | Change in Quality (%) Accelerated (4 weeks) Purity ([3]; Table 12 summary): -0.001% | purity change after 1 month ([3]; accelerated stability): ≤ 0.1% | After 1 Month (%) Degradant ([4]; 60 °C, 1 month): 0.088% | After 1 Month (%) Total Related substances ([4]; 60 °C, 1 month): 0.353% | Change (%) Degradant ([4]; 60 °C, 1 month vs initial): 0.087% | Initial (%) Degradant ([4]; Table 8, initial): 0.001% | Initial (%) Total Related substances ([4]; Table 8, initial): 0.145% | Change in Quality (%) 60 °C (4 weeks) Degradant ([4]; Table 12 summary): 0.087% | Change in Quality (%) 60 °C (4 weeks) Purity ([4]; Table 12 summary): -0.208% | After 24 hours Purity (%) ([5]; 20 mg/mL in purified water, 40 °C, 24 hours): Solid precipitated | Initial Purity (%) ([5]; 20 mg/mL in purified water, initial time point): 99.98% | After 24 hours Degradant (%) ([5]; degradant of Formula 4, 20 mg/mL in purified water, 40 °C, 24 hours): Solid precipitated | solid precipitation / solution state ([5]; listed as pidolate): a solid precipitated | solid precipitation / solution state ([5]; listed as pidolate salt): solid precipitation; also recorded: solids were precipitated | Change (%) Degradant ([6]; Table 11, after exposure vs initial): 0.067% | Initial (%) Degradant ([6]; Table 11, initial): 0.001% | Initial (%) Total Related substances ([6]; Table 11, initial): 0.145% | After (%) Degradant [6, 9]: 0.068% | After (%) Total Related substances [6, 9]: 0.463% | Change in Quality (%) Light (Visible) Degradant ([6]; Table 12 summary): 0.067%
